The record followed here is US20260217701A1, “SELECTIVE BET INHIBITORS AND USES THEREOF” (Tay Therapeutics Limited, priority 2022, published 2026).

This test relates to IL-22. In words: IL-22 release from activated human PBMCs (ELISA). The settings on record: for Percent Inhibition Relative to Control (IL-22): Donors 1-6, two values per donor; for IC50: Homo sapiens, PBMC. Format: cell-based. Here is the method:
Human PBMCs used to analyze inhibition of CXCL10 were collected from 8 donors, PBMCs used to analyze inhibition of IL-17A were collected from 7 donors, and PBMCs used to analyze inhibition of IL-22 were collected from 6 donors. Compounds were serially diluted in 10 mM DMSO and further diluted in assay media to 100× the required final concentration, of which 2 μL was added to the specified well. […] The cell culture supernatant was collected and levels of IL-17A and IL-22 in the supernatant were assessed by ELISA (Invitrogen).
(In an ELISA, binding on a coated surface is turned into a signal by an enzyme label.)

Molecules are shown by their SMILES. Where “and” joins values, the source holds several entries; their conditions need not be identical. Identical values can stand only once. Like-named read-outs stand apart in the source and are kept apart here.

The term IC50 denotes the concentration that gives 50% inhibition.

With `Cn1cc(-c2ccccc2)c(-c2cn(C)c(=O)c3[nH]c(-c4cnn(C(F)(F)F)c4)cc23)cc1=O` [Compound A, 6-methyl-4-(1-methyl-2-oxo-5-phenyl-1,2-dihydropyridin-4-yl)-2-(1-(trifluoromethyl)-1H-pyrazol-4-yl)-1,6-dihydro-7H-pyrrolo[2,3-c]pyridin-7-one], the “potency against IL-22 relative to CXCL10” value is “about 17,000 fold”. The “Biomarker selectivity (IL-22 vs. CXCL 10)” value (Average preliminary biomarker assay) was determined as 5178 Fold. Further, for the setting “Compound Conc. 0.000137174 μM”, the “Percent Inhibition Relative to Control (IL-22)” value was 36.49% and 20.77% and 20.31% and 15% and 13.22% and 40.62% and 42.44% and −18.99% and 2.10% and 20.38% and 35.83% and 13.68%. Also, the “Percent Inhibition Relative to Control (IL-22)” value (Compound Conc. 0.000411523 μM) was 27.24% and 13.07% and 35.55% and 45.22% and 56.28% and 11.33* Percent and 49.71% and 35.72% and 28.88% and 47.8% and 62.34% and 36.26%. Besides, where the note is “Compound Conc. 0.001234568 μM”, the “Percent Inhibition Relative to Control (IL-22)” value was 58.12% and 42.53% and 46.04% and 55.94% and 57.50% and 65.37% and 75.65% and 47.36% and 70.12% and 62.59% and 69.46% and 42.31%. For the same compound, under “Compound Conc. 0.003703704 μM”, the “Percent Inhibition Relative to Control (IL-22)” value was 71.96% and 57.94% and 67.89% and 62.44%. For the same compound, the “Percent Inhibition Relative to Control (IL-22)” value (Compound Conc. 0.011111111 μM) was 52.73% and 45.71% and 72.33% and 61.13% and 48.74% and 54.26% and 71.04% and 74.68% and 76.83% and 75.01% and 72.99% and 61.33%. The “Percent Inhibition Relative to Control (IL-22)” value (Compound Conc. 0.033333333 μM) is 59.22% and 62.46% and 72.37% and 75.81% and 66.02% and 52.09% and 58.24% and 79.61% and 59.59% and 77.99% and 81.27% and 61.98%. Moreover, the “Percent Inhibition Relative to Control (IL-22)” value (Compound Conc. 0.1 μM) was 72.76% and 68.86% and 83.13% and 82.57% and 67.92% and 74.39% and 71.46% and 84.71% and 87.61% and 80.76% and 81.88% and 60.98%. For the same compound, the “Percent Inhibition Relative to Control (IL-22)” value (Compound Conc. 1.52416E−05 μM) was −4.73% and 3.62% and −2.47% and −6.99% and −5.22% and 11.96% and 21.53% and −30.35% and −52.69% and −14.1* Percent and −16.32* Percent and −0.25%. Also, where the note is “Compound Conc. 4.57247E−05 μM”, the “Percent Inhibition Relative to Control (IL-22)” value is −1.30% and −19.44% and 7.09% and −4.72% and −19.37% and 12.73% and 33.63% and −8.80% and 13.17% and 6.1% and 16.75% and −8.17%. Moreover, the IC50 (Average preliminary biomarker assay, read-out: IL-22 IC50 Mean) amounted to 0.2 nM. Further, where the note is “Preliminary biomarker assay, Test Subject 1, read-out: IL-22 IC50”, the concentration for half-maximal inhibition (IC50) amounted to 0.2 nM. Also, under “Preliminary biomarker assay, Test Subject 2, read-out: IL-22 IC50”, the 50% inhibitory concentration (IC50) was 0.1 nM. Also, the IC50 (Preliminary biomarker assay, Test Subject 3, read-out: IL-22 IC50) was 0.3 nM. For the same compound, the IC50 (ELISA, read-out: Selectivity (IC50) IL-22) stood at 0.214 nM. Besides, for the setting “human PBMCs, 72 hours”, the “IC50, inhibition of release of IL-22” value is “sub-nanomolar”.
